Results reported in ChEMBL document CHEMBL1201862, “PubChem BioAssay data set” (2004).
Activity calls are given as the source filed them.

Assays:
Cytochrome P450 2C9 = Cytochrome P450 2C9 (Homo sapiens, UniProt P11712)
Cytochrome P450 2C19 = Cytochrome P450 2C19 (Homo sapiens, UniProt P33261); assay: Cytochrome panel assay with activity outcomes. Panel member name: p450-cyp2c19 Compounds with AC50 equal or less than 10 uM are considered active; format: functional
[1] = Trypanosoma cruzi growth suppression in host cells – NIH3T3 host cells, beta-gal luminescence, confirmation (AID 2044); format: functional, cell-based;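 note: intracellular parasites grown in NIH/3T3 mouse fibroblasts as host cells; luminescent beta-galactosidase reporter signal from transgenic T. cruzi replicating inside host cells; inhibitors lower the luminescence signal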
[2] = NIH3T3 cell viability loss – ATP luminescence, mouse fibroblasts, counter-screen, dose response (AID 2010); format: functional, cell-based;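 note: cells exposed to compound for about 90 hours before reading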
Cytochrome P450 1A2 = biological target: T1, Cytochrome P450 1A2 (Homo sapiens, UniProt P05177);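 note: PubChem cytochrome P450 panel assay, CYP1A2 panel member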
T1 sequence (P05177 whole entry): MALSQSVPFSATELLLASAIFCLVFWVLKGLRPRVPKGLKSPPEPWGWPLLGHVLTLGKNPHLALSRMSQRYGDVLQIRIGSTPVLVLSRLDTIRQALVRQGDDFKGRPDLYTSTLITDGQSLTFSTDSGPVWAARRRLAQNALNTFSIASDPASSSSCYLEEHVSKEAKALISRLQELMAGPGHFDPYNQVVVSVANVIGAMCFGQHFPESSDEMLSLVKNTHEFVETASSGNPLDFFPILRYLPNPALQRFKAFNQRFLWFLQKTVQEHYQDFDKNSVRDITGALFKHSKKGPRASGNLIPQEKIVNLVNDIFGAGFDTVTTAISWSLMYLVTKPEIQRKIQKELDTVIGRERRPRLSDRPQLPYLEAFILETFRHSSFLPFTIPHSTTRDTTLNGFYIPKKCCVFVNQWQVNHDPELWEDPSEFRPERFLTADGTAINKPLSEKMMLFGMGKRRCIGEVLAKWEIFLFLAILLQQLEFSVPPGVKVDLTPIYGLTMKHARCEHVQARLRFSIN

H4 = assay: Luminescence Cell-Based Dose Response HTS to Identify Activators of 5'UTR Stem-Loop Driven Prion Protein mRNA Translation in H4 Neuroglioblastoma Cells. [Related pubchem assays: 1829 (Project Summary), 1814 (Primary HTS)]; format: functional; details: Homo sapiens
[3] = Luminescence Cell-Based Dose Confirmation HTS to Identify Activators of 5'UTR Stem-Loop Driven Alpha-Synuclein mRNA Translation in H4 Neuroglioblastoma Cells. [Related pubchem assays: 1829 (Project Summary), 1814 (Primary HTS)]; format: functional
[4] = Luminescence Cell-Based Dose Response HTS to Identify Activators of Luciferase Translation or Activity in H4 […] Cells. [Related pubchem assays: 1829 (Project Summary), 1814 (Primary HTS)]; format: functional
[5] = biological target: T2, Corticotropin-releasing factor receptor 2/Corticotropin-releasing factor-binding protein (Homo sapiens, UniProt P24387+Q13324); assay: activators of CRF receptor 2 with binding protein – uHTS hits, confirmation (AID 602473); format: functional; details: read-out: EC50_Mean
T2 sequence (Q13324 whole entry): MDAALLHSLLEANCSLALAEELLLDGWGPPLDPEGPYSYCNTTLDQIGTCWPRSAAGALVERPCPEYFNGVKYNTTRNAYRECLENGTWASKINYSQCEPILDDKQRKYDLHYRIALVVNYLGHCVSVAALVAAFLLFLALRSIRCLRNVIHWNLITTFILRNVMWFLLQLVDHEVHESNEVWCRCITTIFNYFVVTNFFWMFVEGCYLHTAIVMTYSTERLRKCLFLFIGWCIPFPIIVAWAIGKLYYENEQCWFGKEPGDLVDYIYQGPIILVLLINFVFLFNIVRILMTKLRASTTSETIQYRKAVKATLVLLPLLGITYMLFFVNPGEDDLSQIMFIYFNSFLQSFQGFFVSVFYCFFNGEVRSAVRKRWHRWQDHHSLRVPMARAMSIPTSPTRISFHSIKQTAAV
T2 sequence (P24387 whole entry): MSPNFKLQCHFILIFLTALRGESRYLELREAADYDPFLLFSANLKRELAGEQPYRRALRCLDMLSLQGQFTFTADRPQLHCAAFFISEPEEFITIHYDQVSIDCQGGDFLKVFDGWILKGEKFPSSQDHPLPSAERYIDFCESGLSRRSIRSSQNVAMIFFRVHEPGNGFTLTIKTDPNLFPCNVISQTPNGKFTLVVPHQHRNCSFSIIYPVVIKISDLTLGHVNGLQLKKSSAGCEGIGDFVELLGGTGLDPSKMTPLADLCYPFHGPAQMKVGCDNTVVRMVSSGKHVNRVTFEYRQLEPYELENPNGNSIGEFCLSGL

Sequence of Cytochrome P450 2C19 (P33261 whole entry): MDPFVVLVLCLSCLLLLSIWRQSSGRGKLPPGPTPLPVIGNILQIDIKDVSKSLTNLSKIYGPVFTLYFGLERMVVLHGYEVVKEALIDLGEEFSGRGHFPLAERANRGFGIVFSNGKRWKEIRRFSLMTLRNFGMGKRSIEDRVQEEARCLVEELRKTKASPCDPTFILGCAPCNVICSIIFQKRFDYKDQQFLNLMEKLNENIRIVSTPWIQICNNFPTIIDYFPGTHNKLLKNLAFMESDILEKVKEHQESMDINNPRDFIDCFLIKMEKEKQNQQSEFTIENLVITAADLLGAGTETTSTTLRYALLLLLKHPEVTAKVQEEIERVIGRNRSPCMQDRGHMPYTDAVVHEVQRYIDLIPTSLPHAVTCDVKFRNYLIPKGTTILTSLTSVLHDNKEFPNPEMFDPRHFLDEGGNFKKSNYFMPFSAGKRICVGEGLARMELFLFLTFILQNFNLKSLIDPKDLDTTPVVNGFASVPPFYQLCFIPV
Sequence of Cytochrome P450 2C9 (P11712 whole entry): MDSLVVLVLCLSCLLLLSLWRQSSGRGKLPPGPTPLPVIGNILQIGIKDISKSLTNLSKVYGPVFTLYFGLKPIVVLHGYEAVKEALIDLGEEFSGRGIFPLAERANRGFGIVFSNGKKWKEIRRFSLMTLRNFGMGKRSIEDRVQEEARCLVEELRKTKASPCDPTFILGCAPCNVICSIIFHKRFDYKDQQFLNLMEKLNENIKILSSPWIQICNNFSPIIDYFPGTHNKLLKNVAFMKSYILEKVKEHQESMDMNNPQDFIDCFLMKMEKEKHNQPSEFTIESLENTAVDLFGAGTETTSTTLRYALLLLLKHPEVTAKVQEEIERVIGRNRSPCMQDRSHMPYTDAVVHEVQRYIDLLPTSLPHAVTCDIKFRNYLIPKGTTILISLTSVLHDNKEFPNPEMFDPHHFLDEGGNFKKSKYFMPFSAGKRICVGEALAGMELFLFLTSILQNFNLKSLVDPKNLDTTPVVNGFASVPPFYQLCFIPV

For `Cc1ccc(-n2c(=O)[nH]cc(C(=O)N3CCc4ccccc43)c2=O)cc1`, the AC50 (Cytochrome P450 2C9) was 1 µM (inconclusive).

For `O=C(Nc1ccccc1)N1CCOCC1`, the AC50 (Cytochrome P450 2C19; read-out: AC50) was 31.6 µM (inconclusive) and the AC50 (Cytochrome P450 2C9) was 0.562 µM (inconclusive).

In the case of `COc1ccc(Cn2nnnc2C(c2ccccn2)N2CCN(c3cc(Cl)ccc3C)CC2)cc1` (stereo not drawn), the EC50 [1] is reported as 2.04 µM (active) and the EC50 [2] is reported as > 60 µM (not active).

For `Cc1nc2ncnn2c(C)c1CCC(=O)NC(C)c1ccc2c(c1)OCCO2` (stereo not drawn), the AC50 (Cytochrome P450 2C19; read-out: AC50) was 8.91 µM (inconclusive).

With `COc1ccc([N+](=O)[O-])c2c1CCN2C(=O)CC[C@H](N)C(=O)O` the AC50 (Cytochrome P450 1A2) was 31.6 µM (inconclusive).

In the case of `O=C(N/N=C/c1ccc([N+](=O)[O-])cc1)c1ccc(COc2ccccc2-c2ccccc2)cc1`, the EC50 [1] is reported as 1.55 µM (active) and the EC50 [2] is reported as > 30 µM (not active).

In the case of `O=c1c2c3c(sc2nc2n1N=C(c1cccs1)CS2)CCCC3`, the EC50 (H4) is reported as 0.118 µM (active).

With `CC(=O)c1ccc(S(=O)(=O)N(Cc2cc3cc4c(cc3nc2O)OCCO4)CC2CCCO2)cc1` (stereo not drawn) the EC50 [3] was 13.6 µM (active), the EC50 [4] was 6.68 µM (active) and the EC50 (H4) was 26.3 µM (active).

With `COc1ccccc1CNc1ccnc(-c2ccoc2)n1` the AC50 (Cytochrome P450 2C9) was 1.26 µM (inconclusive).

With `COC(=O)Cn1ncn2c(cc3oc(C)cc32)c1=O` the EC50 [3] was 2.68 µM (active), the EC50 [4] was 56 µM (active) and the EC50 (H4) was 14.7 µM (active).

For `Cc1cc(C)c(C(=O)Cn2cnc3cc([N+](=O)[O-])ccc3c2=O)cc1C`, the EC50 [1] was 1.61 µM (active) and the EC50 [2] was > 60 µM (not active).

With `CCOc1ccc2nc(O)c(CN(CCc3ccccc3)C(=O)N3CCOCC3)cc2c1` the AC50 (Cytochrome P450 1A2) was 17.8 µM (inconclusive).

In the case of `O=C(/C=C/c1ccco1)NCCc1ccccc1`, the EC50 [3] is reported as 10.9 µM (active), the EC50 [4] is reported as 14.5 µM (active) and the EC50 (H4) is reported as > 120 µM (not active).

For `O=C(CCc1nnc(C2CCCCC2)o1)N1CCN(c2ccccc2F)CC1`, the EC50 [3] was 9.13 µM (active) and the EC50 [4] was 11.8 µM (active).

With `Cc1cc(C)n(CCc2nc(-c3cc4ccccc4o3)cs2)n1` the EC50 [3] was 7.17 µM (active), the EC50 [4] was 9.04 µM (active) and the EC50 (H4) was 60.2 µM (active).

In the case of `CCOCCCN1CC(C(=O)NCCc2ccc(C)cc2)CC1=O` (stereo not drawn), the AC50 (Cytochrome P450 2C19; read-out: AC50) is reported as 25.1 µM (inconclusive).

With `Cc1c(C)n(CCCN(C)C)c2ncnc(NCc3ccccc3)c12` the EC50 [1] was 0.911 µM (active) and the EC50 [2] was > 60 µM (not active).

In the case of `CCNc1ncc2nc(-c3cccs3)c(=O)n(-c3ccccc3)c2n1`, the AC50 (Cytochrome P450 1A2) is reported as 1.58 µM (inconclusive).

With `CN1CCN(NC(=O)Nc2cccc(Cl)c2Cl)CC1` the EC50 [1] was 0.184 µM (active) and the EC50 [2] was > 60 µM (not active).

In the case of `O=C1C=C(c2ccc3[nH]ccc3c2)CCC1`, the EC50 [3] is reported as 16 µM (active), the EC50 [4] is reported as 46.4 µM (active) and the EC50 (H4) is reported as 9.94 µM (active).

For `CCCNC(=O)OC[C@@H]1O[C@H](CCO/N=C(\C)CCC(=O)OC[C@@H]2O[C@H](c3ccccc3)C=C[C@@H]2Oc2ccc(OC)cc2)C=C[C@@H]1Oc1ccc(OC)cc1`, the AC50 (Cytochrome P450 2C19; read-out: AC50) was 0.0794 µM (inconclusive) and the AC50 (Cytochrome P450 2C9) was 3.98 µM (inconclusive).

In the case of `COc1ccc(N(CC(=O)O)N=O)cc1`, the AC50 (Cytochrome P450 2C19) is reported as “inconclusive” and the AC50 (Cytochrome P450 1A2) is reported as 0.0251 µM (inconclusive).

In the case of `COc1ccc(N(CC(=O)NCCC2=CCCCC2)S(=O)(=O)c2ccc(C)cc2)cc1`, the EC50 [1] is reported as 2.31 µM (active) and the EC50 [2] is reported as > 30 µM (not active).

With `O=C(CCl)NN1C(=O)NC(c2ccccc2)(c2ccccc2)C1=O` the EC50 [3] was 13.1 µM (active), the EC50 [4] was > 120 µM (not active) and the EC50 (H4) was > 120 µM (not active).

With `O=[N+]([O-])c1ccc(-[n+]2c(-c3ccccc3)cc(-c3ccccc3)cc2-c2ccccc2)cc1.[O-][Cl+3]([O-])([O-])[O-]` the EC50 [1] was 0.264 µM (active), the EC50 [2] was > 60 µM (not active) and the EC50 [5] was 5.02 µM (active).

In the case of `COc1ccc(N2C(=O)CCC(C(=O)Nc3ccccn3)C2c2ccc(OC)c(OC)c2)cc1` (stereo not drawn), the AC50 (Cytochrome P450 2C9) is reported as 3.16 µM (inconclusive).

For `COc1cc(/C=N/NC2=NC(=O)C(CC(=O)O)S2)ccc1OCc1cccc(Cl)c1` (stereo not drawn), the EC50 [3] was 6.12 µM (active), the EC50 [4] was 10.1 µM (active) and the EC50 (H4) was 19.7 µM (active).
